Entries after “also recorded” stand apart in the source; their conditions may differ.
Experiments:
HMLE-Twist-ER cells [1] = assay: LC-MS measurement of cellular DHU and uracil; format: cell-based, human; details: OHT treatment of HMLE-Twist-ER cells, 15 days time course
Description: Solvents were obtained from Fisher Scientific and were Optima LC/MS grade except where otherwise specified. Cells grown in standard tissue culture plates (500,000 cells per sample) were washed twice in an ice-cold solution of 0.9% NaCl in deionized water, followed by extraction on dry ice in 1 mL 80% methanol containing 10 ng/mL phenylalanine-d8 and valine-d8 (Sigma-Aldrich) as internal standards. The cell mixtures were shaken vigorously on a Vortex mixer for 10 min. at 4° C., vacuum-dried, and resuspended in 100 μL LC/MS grade water (Fisher). These extracts were then centrifuged at 15,000×g at 4° C. for 10 min, and the supernatants were passed through a cellulose acetate particulate filter (National Scientific). […]
The UPLC system was coupled to a QExactive orbitrap mass spectrometer equipped with a HESI II probe (Thermo Fisher Scientific) operating in positive ion mode. […] Quantitation of the data was performed with XCalibur QuanBrowser 2.2 (Thermo Fisher Scientific) using a 5 ppm mass tolerance, by a researcher blinded to the identity of the samples. Pure thymine (T0376), and uracil (U1128) were obtained from Sigma-Aldrich and dihydrothymine (L01996), and dihydrouracil (L01918) were obtained from Alfa Aesar and were run in half-log serial dilution (3 nM-100 μM) to confirm chromatographic retention times and generate standard curves for quantitation of each analytical batch.

HMLE-Twist-ER cells [2] = assay: in vitro mammosphere formation assay; format: cell-based, human; details: HMLE-Twist-ER cells expressing shDPYD_1, exogenous addition of metabolite
Description: 500 cells/well were seeded in 96-well ultra-low adhesion plates (Corning, 3474) in MammoCult Basal Medium (Stem Cell Technology, 05621) containing 2.6% methylcellulose (Stem Cell Technology, H4100) and 10% MammoCult Proliferation Supplements (Stem Cell Technology, 05621), supplemented with 0.5 μg/ml hydrocortisone, 4 μg/ml Heparin and Pen/strep. Spheres were counted 12-14 days later.

Molecule | increase of cellular DHU/uracil molar ratio (HMLE-Twist-ER cells [1]) [fold] | rescue of mammosphere formation (HMLE-Twist-ER cells [2])
4-hydroxytamoxifen [OHT] | 5 | –
CC1CNC(=O)NC1=O (stereo not shown) [DHT, dihydrothymine] | – | dose-dependent rescue of mammosphere formation
O=C1CCNC(=O)N1 [DHU, dihydrouracil] | – | more strongly than uracil; also recorded: dose-dependent rescue of mammosphere formation
O=c1cc[nH]c(=O)[nH]1 [uracil] | – | significantly smaller effect

— US9551036B2, “Metabolic gene mesenchymal signatures and uses thereof” (Whitehead Institute for Biomedical Research, priority 2013, dated 2017)
